Measured values as given in article PMC9206137, “Synergistic anti-SARS-CoV-2 activity of repurposed anti-parasitic drug combinations” (BMC Pharmacology & Toxicology, 2022).
Values joined by “and” are separate entries in the source; they are usually repeats but may differ in a detail not shown here. Identical values can stand only once.

How the values were obtained:
[1] = system: SARS-CoV-2; assay: Antiviral activity against SARS-CoV-2 in Vero E6 cells, plaque assay; format: cell-based
[2] = system: SARS-CoV-2; assay: Antiviral activity against SARS-CoV-2 in Vero E6 cells, one-step qRT-PCR (single drugs, two-drug combinations, synergy analysis); details: for %inhibition (qRT-PCR) / % inhibition: replicates; for % inhibition: Vero E6 cells
[3] = Cell viability assay (MTT) in Vero E6 cells; details: African green monkey, %cell viability, Vero E6, replicates
Description: Subsequently, the cell viability was assessed using MTT dyes (Invitrogen) in duplicate (Supplementary file 1). The procedure was described elsewhere. The viability of drug-treated cells was expressed as percent cell viability relative to 0.5% DMSO-treated cells.

[4] = system: SARS-CoV-2; details: because of the expression of TMPRSS2; cited from earlier work

## CCN(CC)CCCC(C)Nc1ccnc2cc(Cl)ccc12 (stereo not shown) [Chloroquine, chloroquine]
[1]; Severe acute respiratory syndrome coronavirus 2, Vero C1008, Vero E6, chloroquine 0.625 uM, replicates
  inhibition at 0.625 µM: 50%
[1]; Severe acute respiratory syndrome coronavirus 2, Vero C1008, Vero E6, chloroquine 1.25 uM, replicates
  inhibition at 1.25 µM: 61.4%
[1]; Severe acute respiratory syndrome coronavirus 2, Vero C1008, Vero E6, chloroquine 2.5 uM, replicates
  inhibition at 2.5 µM: 70%
[1]; Severe acute respiratory syndrome coronavirus 2, Vero C1008, Vero E6, chloroquine 5 uM, replicates
  inhibition at 5 µM: 85.1%
[1]; Severe acute respiratory syndrome coronavirus 2, Vero C1008, Vero E6, MOI 0.01, 48 hours, single drug
  IC50: 0.83 µM
[1]; Vero E6, chloroquine 0.15625 uM, replicates
  %inhibition (plaque assay): 5.00% and 10.00%
[1]; Vero E6, chloroquine 0.3125 uM, replicates
  %inhibition (plaque assay): 15.00% and 6.06% and 11.00%
[1]; Vero E6, chloroquine 0.625 uM, replicates
  %inhibition (plaque assay): 55.50%
[1]; Vero E6, chloroquine 1.25 uM, replicates
  %inhibition (plaque assay): 73.20% and 66.30%
[1]; Vero E6, chloroquine 2.5 uM, replicates
  %inhibition (plaque assay): 75.00% and 69.50%
[1]; Vero E6, chloroquine 5 uM, replicates
  %inhibition (plaque assay): 87.00% and 85.00%
[2]; Vero E6, chloroquine 0.15625 uM
  %inhibition (qRT-PCR): 14.20% and 15.40% and 13.50%
[2]; Vero E6, chloroquine 0.3125 uM
  %inhibition (qRT-PCR): 29.59% and 23.98%
[2]; Vero E6, chloroquine 0.625 uM
  %inhibition (qRT-PCR): 47.22% and 54.26% and 49.79%
[2]; Vero E6, chloroquine 1.25 uM
  %inhibition (qRT-PCR): 51.48% and 58.46% and 54.05%
[2]; Vero E6, chloroquine 2.5 uM
  %inhibition (qRT-PCR): 67.75% and 70.05% and 70.73%
[2]; Vero E6, chloroquine 5 uM
  %inhibition (qRT-PCR): 88.11% and 84.26% and 88.40%
[2]; Chloroquine 0.2125 uM alone
  % inhibition: 32.17% and 30.26% and 30.74%
[2]; Chloroquine 0.425 uM alone
  % inhibition: 35.38% and 45.66% (2×)
[2]; Chloroquine 0.85 uM alone
  % inhibition: 58.25% and 55.25% and 59.67%
[2]; Chloroquine 1.7 uM alone
  % inhibition: 76.18% and 70.48% and 73.21%
[2]; read-out: IC50 (μM) qRT-PCR, Vero E6, MOI 0.01, 48 hours, single drug
  IC50: 0.89 µM
[3]; chloroquine 40 uM
  viability at 48 h, 40 uM: 78.5%
[3]; chloroquine 160 uM
  viability at 48 h, 160 uM: 34.5%
[4]
  inhibition of SARS-CoV-2 in human lung cells: could not inhibit
